Reference: ChEMBL document CHEMBL1201862, “PubChem BioAssay data set” (2004)
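These data come from cells grown in 96-well plates and exposed to compound for 48 hours at five concentrations. Here, GI50 denotes the concentration required for 50% inhibition of growth.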 Active and inactive are the calls of the source. Rule as the data show it: active = GI50 up to about 1.1 µM and inactive = higher.

How the values were obtained:
Experiment in all cases: DTP human tumour cell line panel, 48 h
DU-145 = tested on: DU-145
LOX IMVI = tested on: LOX IMVI
RPMI-8226 = tested on: RPMI-8226
TK-10 = tested on: TK-10
MDA-MB-231 = tested on: MDA-MB-231
T47D = tested on: T47D
MDA-MB-435 = tested on: MDA-MB-435
U-251 = tested on: U-251
HOP-62 = tested on: HOP-62
SK-MEL-5 = tested on: SK-MEL-5
SR = tested on: SR
UACC-257 = tested on: UACC-257
RXF 393 = tested on: RXF 393
SK-MEL-2 = tested on: SK-MEL-2
SF-539 = tested on: SF-539
SF-295 = tested on: SF-295
A549 = tested on: A549
OVCAR-5 = tested on: OVCAR-5
OVCAR-3 = tested on: OVCAR-3
NCI-H460 = tested on: NCI-H460

Row | SMILES | GI50 (DU-145) | GI50 (LOX IMVI) | GI50 (RPMI-8226) | GI50 (TK-10) | GI50 (MDA-MB-231) | GI50 (T47D) | GI50 (MDA-MB-435) | GI50 (U-251) | GI50 (HOP-62) | GI50 (SK-MEL-5) | GI50 (SR) | GI50 (UACC-257) | GI50 (RXF 393) | GI50 (SK-MEL-2) | GI50 (SF-539) | GI50 (SF-295) | GI50 (A549) | GI50 (OVCAR-5) | GI50 (OVCAR-3) | GI50 (NCI-H460)
1 | COc1ccc(-c2cc3ccccc3oc2=O)cc1OC | > 100 µM (inactive) | > 100 µM (inactive) | 44.6 µM (inactive) | > 100 µM (inactive) | > 100 µM (inactive) | > 100 µM (inactive) | > 100 µM (inactive) | > 100 µM (inactive) | > 100 µM (inactive) | 81.5 µM (inactive) | > 100 µM (inactive) | > 100 µM (inactive) | > 100 µM (inactive) | > 100 µM (inactive) | > 100 µM (inactive) | > 100 µM (inactive) | > 100 µM (inactive) | > 100 µM (inactive) | > 100 µM (inactive) | 
2 | CCCNC(=S)N/N=C1\C(=O)Nc2ccccc21 | > 100 µM (inactive) | > 100 µM (inactive) | > 100 µM (inactive) | > 100 µM (inactive) | > 100 µM (inactive) | > 100 µM (inactive) | > 100 µM (inactive) | > 100 µM (inactive) | > 100 µM (inactive) | > 100 µM (inactive) | > 100 µM (inactive) | > 100 µM (inactive) | > 100 µM (inactive) | > 100 µM (inactive) | > 100 µM (inactive) | > 100 µM (inactive) | > 100 µM (inactive) | > 100 µM (inactive) | > 100 µM (inactive) | > 100 µM (inactive)
3 | Cc1ccc(S(=O)(=O)OC2CC(C(C)(C)C)CCC2c2ccccc2)cc1 (stereo unspecified) | > 100 µM (inactive) | > 100 µM (inactive) | 17.9 µM (inactive) | > 100 µM (inactive) | > 100 µM (inactive) | 53.7 µM (inactive) | 66.1 µM (inactive) | 50.1 µM (inactive) | 53 µM (inactive) | 79.8 µM (inactive) | 23.6 µM (inactive) | 29 µM (inactive) | 89.7 µM (inactive) | > 100 µM (inactive) | > 100 µM (inactive) | 42.1 µM (inactive) | 40.6 µM (inactive) | > 100 µM (inactive) | 93.5 µM (inactive) | 78.7 µM (inactive)
4 | O=C1c2ccccc2C(=O)c2c(NC(=O)C(Cl)CCl)cccc21 (stereo unspecified) | 7.38 µM (inactive) | 2.44 µM (inactive) | 0.628 µM (active) | 4.37 µM (inactive) | 6.53 µM (inactive) | 2.75 µM (inactive) | 7.11 µM (inactive) | 3.33 µM (inactive) | 10.5 µM (inactive) | 9.66 µM (inactive) | < 0.01 µM (active) | 14.7 µM (inactive) | 6.64 µM (inactive) | 5.09 µM (inactive) | 4.83 µM (inactive) | 26.7 µM (inactive) | 20.4 µM (inactive) | 15.6 µM (inactive) | 11 µM (inactive) | 6.32 µM (inactive)
5 | Cc1ccc(/C=C2\N=C(N3CCOCC3)NC2=O)cc1 | > 100 µM (inactive) | > 100 µM (inactive) | > 100 µM (inactive) | > 100 µM (inactive) | > 100 µM (inactive) | > 100 µM (inactive) | > 100 µM (inactive) | > 100 µM (inactive) | 77.6 µM (inactive) |  | > 100 µM (inactive) | > 100 µM (inactive) | > 100 µM (inactive) | > 100 µM (inactive) | > 100 µM (inactive) | > 100 µM (inactive) | > 100 µM (inactive) | > 100 µM (inactive) | > 100 µM (inactive) | 
6 | COc1cc(NS(C)(=O)=O)ccc1NCc1c[nH]c2ccc3nc(C)ccc3c12 | 32.1 µM (inactive) | 49.5 µM (inactive) | 17.1 µM (inactive) | 38.7 µM (inactive) | 61.1 µM (inactive) | 24.2 µM (inactive) | 30.2 µM (inactive) | 77.6 µM (inactive) | 55.5 µM (inactive) | 42 µM (inactive) | 4.89 µM (inactive) | 47.8 µM (inactive) | 22.5 µM (inactive) | 23.8 µM (inactive) | 78.2 µM (inactive) | 48.8 µM (inactive) | > 100 µM (inactive) | 39.5 µM (inactive) | 27.6 µM (inactive) | 68.1 µM (inactive)
7 | CC(C)(C)OC(=O)NCC(=O)NC1CC=CCC1NC(=O)CNC(=O)OC(C)(C)C (stereo unspecified) | > 100 µM (inactive) | > 100 µM (inactive) | > 100 µM (inactive) | > 100 µM (inactive) | > 100 µM (inactive) | > 100 µM (inactive) | > 100 µM (inactive) | > 100 µM (inactive) | > 100 µM (inactive) | > 100 µM (inactive) | > 100 µM (inactive) | > 100 µM (inactive) | > 100 µM (inactive) |  | > 100 µM (inactive) | > 100 µM (inactive) | > 100 µM (inactive) | > 100 µM (inactive) | > 100 µM (inactive) | > 100 µM (inactive)
8 | Nc1nnc2n1C(=O)C(C1(C3=Nc4nnc(N)n4C3=O)Cc3ccccc3C1=O)=N2 | > 100 µM (inactive) | 87.5 µM (inactive) | > 100 µM (inactive) | > 100 µM (inactive) | 31.8 µM (inactive) | 64.9 µM (inactive) | > 100 µM (inactive) |  | > 100 µM (inactive) | > 100 µM (inactive) | 76.6 µM (inactive) | > 100 µM (inactive) | > 100 µM (inactive) |  | > 100 µM (inactive) | > 100 µM (inactive) | 43.5 µM (inactive) | > 100 µM (inactive) | > 100 µM (inactive) | > 100 µM (inactive)
9 | CCN(C(=O)/C=C/c1ccco1)c1ccccc1 | > 100 µM (inactive) | > 100 µM (inactive) | 75.2 µM (inactive) | > 100 µM (inactive) | > 100 µM (inactive) | > 100 µM (inactive) | > 100 µM (inactive) | > 100 µM (inactive) | > 100 µM (inactive) | > 100 µM (inactive) | 46.2 µM (inactive) | > 100 µM (inactive) | > 100 µM (inactive) | > 100 µM (inactive) |  | > 100 µM (inactive) | > 100 µM (inactive) | > 100 µM (inactive) | > 100 µM (inactive) | > 100 µM (inactive)
10 | O=c1[nH]c2cc(F)c(F)cc2nc1Cc1ccccc1 | > 100 µM (inactive) | > 100 µM (inactive) |  | > 100 µM (inactive) | > 100 µM (inactive) | > 100 µM (inactive) | > 100 µM (inactive) | > 100 µM (inactive) | > 100 µM (inactive) | > 100 µM (inactive) | > 100 µM (inactive) | > 100 µM (inactive) | > 100 µM (inactive) | > 100 µM (inactive) | > 100 µM (inactive) | > 100 µM (inactive) |  |  |  | > 100 µM (inactive)
11 | COc1ccc(Cn2nc(OCc3ccccn3)c3cc([N+](=O)[O-])ccc32)cc1 | > 100 µM (inactive) | > 100 µM (inactive) | > 100 µM (inactive) | > 100 µM (inactive) | > 100 µM (inactive) | > 100 µM (inactive) | > 100 µM (inactive) |  | 28.1 µM (inactive) | > 100 µM (inactive) | > 100 µM (inactive) | > 100 µM (inactive) | > 100 µM (inactive) | 49.5 µM (inactive) | 33.3 µM (inactive) | 50.9 µM (inactive) | > 100 µM (inactive) | > 100 µM (inactive) | > 100 µM (inactive) | > 100 µM (inactive)
12 | Cc1cn([C@H]2C[C@](C)(CO)N(C)O2)c(=O)[nH]c1=O | > 100 µM (inactive) | > 100 µM (inactive) | > 100 µM (inactive) | > 100 µM (inactive) | > 100 µM (inactive) | > 100 µM (inactive) | > 100 µM (inactive) | > 100 µM (inactive) | > 100 µM (inactive) | > 100 µM (inactive) | > 100 µM (inactive) | > 100 µM (inactive) | > 100 µM (inactive) | > 100 µM (inactive) |  | > 100 µM (inactive) | > 100 µM (inactive) | > 100 µM (inactive) |  | > 100 µM (inactive)
13 | CC[C@]1(Cc2ccc(OC)c(OC)c2)C=[N+]([O-])O[C@H](OC2CCCC2(c2ccccc2)c2ccccc2)[C@@H]1OC(=O)c1ccccc1 (stereo partly specified) | 10.6 µM (inactive) | 3.6 µM (inactive) |  |  | > 24.9 µM (inactive) | 2.73 µM (inactive) | 3.73 µM (inactive) | 42.1 µM (inactive) | 9.89 µM (inactive) | 4.37 µM (inactive) | 3.1 µM (inactive) | 14 µM (inactive) | 4.35 µM (inactive) | 8 µM (inactive) | > 100 µM (inactive) | 14.1 µM (inactive) | 5.92 µM (inactive) | 22.3 µM (inactive) | 3.15 µM (inactive) | 14.2 µM (inactive)
14 | COc1ccc(-c2cc(-c3ccc(Nc4ccnc5cc(Cl)ccc45)cc3)[nH]c(=O)c2C#N)cc1 | > 100 µM (inactive) | > 100 µM (inactive) | > 100 µM (inactive) | 72.4 µM (inactive) | > 100 µM (inactive) | > 100 µM (inactive) | > 100 µM (inactive) | > 100 µM (inactive) | 80 µM (inactive) |  | > 100 µM (inactive) |  | > 100 µM (inactive) | > 100 µM (inactive) | > 100 µM (inactive) | > 100 µM (inactive) | > 100 µM (inactive) | > 100 µM (inactive) | > 100 µM (inactive) | > 100 µM (inactive)
15 | O=C1NC(N2CCCCC2)=N/C1=C\c1ccco1 | > 100 µM (inactive) | > 100 µM (inactive) | > 100 µM (inactive) | > 100 µM (inactive) | > 100 µM (inactive) | > 100 µM (inactive) | > 100 µM (inactive) | > 100 µM (inactive) | > 100 µM (inactive) | > 100 µM (inactive) | > 100 µM (inactive) | > 100 µM (inactive) | > 100 µM (inactive) | > 100 µM (inactive) | > 100 µM (inactive) | > 100 µM (inactive) | > 100 µM (inactive) | > 100 µM (inactive) | > 100 µM (inactive) | 
